Measured values as given in paper PMC7305236, “The atypical chemokine receptor ACKR3/CXCR7 is a broad-spectrum scavenger for opioid peptides” (Nature Communications, 2020).
Where two headings read alike, the source gives them in different places.

Assays:
Parameters in all cases: dose or concentration left out as unconfirmed
CCR4 = target: T1, CCR4 (Homo sapiens, UniProt P51679); assay: Figure S2a opioid peptide screen on chemokine receptors; format: cell-based
T1 construct: expressed in transfected cells
T1 sequence (P51679 1-360): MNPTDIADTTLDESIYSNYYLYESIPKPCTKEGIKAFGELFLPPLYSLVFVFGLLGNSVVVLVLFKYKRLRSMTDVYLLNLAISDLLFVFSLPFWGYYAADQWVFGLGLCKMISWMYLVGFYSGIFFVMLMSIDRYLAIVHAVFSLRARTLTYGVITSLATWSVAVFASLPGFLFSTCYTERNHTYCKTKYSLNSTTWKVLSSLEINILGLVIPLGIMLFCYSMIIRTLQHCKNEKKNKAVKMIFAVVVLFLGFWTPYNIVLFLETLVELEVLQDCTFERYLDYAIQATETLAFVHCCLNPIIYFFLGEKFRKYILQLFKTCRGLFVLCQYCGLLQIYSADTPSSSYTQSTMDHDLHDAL

CCR10 = target: T2, CCR10 (Homo sapiens, UniProt P46092); assay: as above; format: cell-based
T2 construct: expressed in transfected cells
T2 sequence (P46092 1-362): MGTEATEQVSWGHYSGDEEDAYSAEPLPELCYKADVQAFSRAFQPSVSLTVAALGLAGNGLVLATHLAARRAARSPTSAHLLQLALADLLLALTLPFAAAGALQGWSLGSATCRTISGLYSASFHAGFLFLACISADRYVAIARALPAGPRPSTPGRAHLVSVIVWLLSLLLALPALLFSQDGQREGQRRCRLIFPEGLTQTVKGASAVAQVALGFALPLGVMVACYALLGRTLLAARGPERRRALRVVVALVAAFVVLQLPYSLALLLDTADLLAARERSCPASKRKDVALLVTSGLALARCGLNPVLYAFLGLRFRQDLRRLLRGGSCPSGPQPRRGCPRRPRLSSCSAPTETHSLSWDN

CXCR3B = target: T3, CXCR3B (Homo sapiens, UniProt P49682); assay: as above; format: cell-based
T3 construct: expressed in transfected cells; host or cells: U87 cells
T3 sequence (P49682 1-415 isoform P49682-2): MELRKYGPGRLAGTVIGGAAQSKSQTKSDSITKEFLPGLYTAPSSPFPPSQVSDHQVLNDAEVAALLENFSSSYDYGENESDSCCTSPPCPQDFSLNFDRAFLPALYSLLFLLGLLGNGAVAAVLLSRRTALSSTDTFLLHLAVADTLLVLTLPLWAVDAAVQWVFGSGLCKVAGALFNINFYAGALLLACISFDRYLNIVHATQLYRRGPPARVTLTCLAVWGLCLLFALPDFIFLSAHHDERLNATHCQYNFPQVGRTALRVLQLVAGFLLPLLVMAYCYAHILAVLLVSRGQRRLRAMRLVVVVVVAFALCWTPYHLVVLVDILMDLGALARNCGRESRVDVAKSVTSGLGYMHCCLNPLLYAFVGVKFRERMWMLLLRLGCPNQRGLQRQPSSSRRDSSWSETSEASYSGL

CXCR4 = target: T4, CXCR4 (Homo sapiens, UniProt P61073); assay: cell-based
T4 construct: expressed in transfected cells; host or cells: U87, transient cotransfection of pNBe vectors
T4 sequence (P61073 whole entry): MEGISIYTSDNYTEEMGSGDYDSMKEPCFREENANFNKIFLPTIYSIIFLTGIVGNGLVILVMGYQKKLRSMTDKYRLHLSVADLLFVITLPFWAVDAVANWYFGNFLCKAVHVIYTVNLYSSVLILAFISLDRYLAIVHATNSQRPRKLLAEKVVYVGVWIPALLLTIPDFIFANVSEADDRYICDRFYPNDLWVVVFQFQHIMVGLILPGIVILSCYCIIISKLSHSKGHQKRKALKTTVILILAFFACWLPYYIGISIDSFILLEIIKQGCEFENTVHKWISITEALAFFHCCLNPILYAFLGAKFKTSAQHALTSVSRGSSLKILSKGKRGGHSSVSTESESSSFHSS

CCR1 = target: T5, CCR1 (Homo sapiens, UniProt P32246); assay: Figure S2a opioid peptide screen on chemokine receptors; format: cell-based
T5 construct: expressed in transfected cells
T5 sequence (P32246 1-355): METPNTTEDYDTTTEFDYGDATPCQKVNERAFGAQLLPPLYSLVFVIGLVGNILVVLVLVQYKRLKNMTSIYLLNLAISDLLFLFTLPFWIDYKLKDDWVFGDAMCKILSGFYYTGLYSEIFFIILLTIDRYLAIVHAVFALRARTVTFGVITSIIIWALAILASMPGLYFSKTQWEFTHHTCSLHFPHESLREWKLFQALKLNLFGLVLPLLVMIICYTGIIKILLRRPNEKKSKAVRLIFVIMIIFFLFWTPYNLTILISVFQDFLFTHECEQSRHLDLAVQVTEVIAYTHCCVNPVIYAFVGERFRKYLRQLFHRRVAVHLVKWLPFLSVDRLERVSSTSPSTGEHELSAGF

CCR5 = target: T6, CCR5 (Homo sapiens, UniProt P51681); assay: as above; format: cell-based
T6 construct: expressed in transfected cells
T6 sequence (P51681 whole entry): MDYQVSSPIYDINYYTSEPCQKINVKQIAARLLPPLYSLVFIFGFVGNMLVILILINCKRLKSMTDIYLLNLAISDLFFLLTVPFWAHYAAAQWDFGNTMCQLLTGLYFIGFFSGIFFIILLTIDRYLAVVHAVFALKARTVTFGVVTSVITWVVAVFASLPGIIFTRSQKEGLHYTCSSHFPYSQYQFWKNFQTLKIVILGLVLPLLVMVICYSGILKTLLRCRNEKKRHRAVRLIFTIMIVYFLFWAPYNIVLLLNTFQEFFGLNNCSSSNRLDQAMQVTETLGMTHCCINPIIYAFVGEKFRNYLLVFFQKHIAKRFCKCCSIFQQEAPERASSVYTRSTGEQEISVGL

CCR6 = target: T7, CCR6 (Homo sapiens, UniProt P51684); assay: as above; format: cell-based
T7 construct: expressed in transfected cells
T7 sequence (P51684 1-374): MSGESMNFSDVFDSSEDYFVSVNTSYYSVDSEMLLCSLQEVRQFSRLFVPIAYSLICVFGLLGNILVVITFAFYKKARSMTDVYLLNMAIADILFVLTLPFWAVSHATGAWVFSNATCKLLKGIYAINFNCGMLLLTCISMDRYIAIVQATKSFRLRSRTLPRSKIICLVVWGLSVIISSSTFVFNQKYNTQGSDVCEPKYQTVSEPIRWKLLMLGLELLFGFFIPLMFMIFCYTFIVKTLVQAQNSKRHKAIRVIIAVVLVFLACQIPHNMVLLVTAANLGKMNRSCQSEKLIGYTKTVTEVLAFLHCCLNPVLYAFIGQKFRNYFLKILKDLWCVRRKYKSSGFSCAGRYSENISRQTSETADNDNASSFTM

CCR8 = CCR8 (Homo sapiens, UniProt P51685); assay: as above; conditions: read-out: CCR8 activity, ctrl+ = 100, Figure S2a
Chain of CCR8 (P51685 whole entry): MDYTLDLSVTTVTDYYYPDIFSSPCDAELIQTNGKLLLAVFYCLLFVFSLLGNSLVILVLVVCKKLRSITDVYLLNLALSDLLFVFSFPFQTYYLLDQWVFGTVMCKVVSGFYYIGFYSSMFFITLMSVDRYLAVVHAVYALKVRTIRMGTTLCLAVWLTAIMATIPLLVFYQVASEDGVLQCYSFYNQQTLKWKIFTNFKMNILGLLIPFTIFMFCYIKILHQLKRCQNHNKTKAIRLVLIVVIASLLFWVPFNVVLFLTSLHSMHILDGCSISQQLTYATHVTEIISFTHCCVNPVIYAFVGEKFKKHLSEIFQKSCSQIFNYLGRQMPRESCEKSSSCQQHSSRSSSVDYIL

[1] = replicate 1, read-out: CCR4 activity, ctrl+ = 100
[2] = replicate 2, read-out: CCR4 activity, ctrl+ = 100
[3] = replicate 3, read-out: CCR4 activity, ctrl+ = 100
[4] = replicate 1, read-out: CCR10 activity, ctrl+ = 100
[5] = replicate 2, read-out: CCR10 activity, ctrl+ = 100
[6] = replicate 3, read-out: CCR10 activity, ctrl+ = 100
[7] = replicate 1, read-out: CXCR3B activity, ctrl+ = 100
[8] = replicate 2, read-out: CXCR3B activity, ctrl+ = 100
[9] = replicate 3, read-out: CXCR3B activity, ctrl+ = 100
[10] = Figure S2a, replicate 1, read-out: CXCR4 activity, ctrl+ = 100
[11] = Figure S2a, replicate 2, read-out: CXCR4 activity, ctrl+ = 100
[12] = Figure S2a, replicate 3, read-out: CXCR4 activity, ctrl+ = 100
[13] = replicate 1, read-out: CCR1 activity, ctrl+ = 100
[14] = replicate 2, read-out: CCR1 activity, ctrl+ = 100
[15] = replicate 3, read-out: CCR1 activity, ctrl+ = 100
[16] = replicate 1, read-out: CCR5 activity, ctrl+ = 100
[17] = replicate 2, read-out: CCR5 activity, ctrl+ = 100
[18] = replicate 3, read-out: CCR5 activity, ctrl+ = 100
[19] = replicate 1, read-out: CCR6 activity, ctrl+ = 100
[20] = replicate 2, read-out: CCR6 activity, ctrl+ = 100
[21] = replicate 3, read-out: CCR6 activity, ctrl+ = 100

Row | SMILES | activation (CCR4; [1]) [%] | activation (CCR4; [2]) [%] | activation (CCR4; [3]) [%] | activation (CCR10; [4]) [%] | activation (CCR10; [5]) [%] | activation (CCR10; [6]) [%] | activation (CXCR3B; [7]) [%] | activation (CXCR3B; [8]) [%] | activation (CXCR3B; [9]) [%] | activation (CXCR4; [10]) [%] | activation (CXCR4; [11]) [%] | activation (CCR1; [13]) [%] | activation (CCR1; [14]) [%] | activation (CCR1; [15]) [%] | activation (CCR5; [16]) [%] | activation (CCR5; [17]) [%] | activation (CCR6; [19]) [%] | activation (CCR6; [20]) [%] | activation (CCR8; replicate 1) [%] | activation (CCR8; replicate 2) [%] | other results
1 | CSCC[C@H](NC(=O)[C@H](Cc1ccccc1)NC(=O)CNC(=O)CNC(=O)[C@@H](N)Cc1ccc(O)cc1)C(=O)N[C@@H](CCCNC(=N)N)C(=O)N[C@@H](CCCNC(=N)N)C(=O)N[C@H](C(N)=O)C(C)C [Adrenorphin] | -4.72 | -4.07 | 2.73 | 1.18 | -7.52 | -2 | 3.73 | 1.55 | 0.555 | -0.233 | 14 | -15 | 8.25 | -9.95 | 0.166 | -0.467 | -3.87 | 1.08 | -17.4 | -15.7 | activation (CXCR4; [12]): 3.91%; activation (CCR5; [18]): -0.49%; activation (CCR6; [21]): -1.64%; activation (CCR8; replicate 3): -4%
2 | CSCC[C@H](NC(=O)[C@H](Cc1ccccc1)NC(=O)CNC(=O)CNC(=O)[C@@H](N)Cc1ccc(O)cc1)C(=O)N[C@@H](CCCNC(=N)N)C(=O)N[C@@H](CCCNC(=N)N)C(=O)N[C@H](C(=O)NCC(=O)N[C@@H](CCCNC(=N)N)C(=O)N1CCC[C@H]1C(=O)N[C@@H](CCC(=O)O)C(=O)N[C@@H](Cc1c[nH]c2ccccc12)C(=O)N[C@@H](Cc1c[nH]c2ccccc12)C(=O)N[C@@H](CCSC)C(=O)N[C@@H](CC(=O)O)C(=O)N[C@@H](Cc1ccc(O)cc1)C(=O)N[C@@H](CCC(N)=O)C(=O)N[C@@H](CCCCN)C(=O)N[C@@H](CCCNC(=N)N)C(=O)N[C@@H](Cc1ccc(O)cc1)C(=O)NCC(=O)O)C(C)C [BAM22] | -0.405 | -3.44 | 3.02 | -2.23 | -4.92 | -3.25 | -1.43 | 0.626 | 5.18 |  |  | -7.62 | 9.7 | 10.5 | 0.229 | -1.32 | -2.07 | -2.99 | -18.7 | -21.3 | activation (CXCR4; read-out: CXCR4 activity, ctrl+ = 100, Figure S2a, replicate 1): 22.9%; activation (CXCR4; read-out: CXCR4 activity, ctrl+ = 100, Figure S2a, replicate 2): 27.7%; activation (CXCR4; read-out: CXCR4 activity, ctrl+ = 100, Figure S2a, replicate 3): -6.34%; activation (CCR5; [18]): -1.42%; activation (CCR6; [21]): -1.86%; activation (CCR8; replicate 3): -4.1%
3 | CC[C@H](C)[C@H](NC(=O)[C@H](CCCNC(=N)N)NC(=O)[C@H](CCCNC(=N)N)NC(=O)[C@H](CC(C)C)NC(=O)[C@H](Cc1ccccc1)NC(=O)CNC(=O)CNC(=O)[C@@H](N)Cc1ccc(O)cc1)C(=O)N[C@@H](CCCNC(=N)N)C(=O)N1CCC[C@H]1C(=O)N[C@@H](CCCCN)C(=O)N[C@@H](CC(C)C)C(=O)N[C@@H](CCCCN)C(=O)O [Dynorphin 1-13] | 0.25 | -3.89 |  | -2.25 | -4.52 |  | 3.92 | -5.01 |  | 13.2 | -40.8 | -29 | -26.2 |  | -0.272 | -1.44 | -0.31 | -0.732 |  | -19.6 | 
4 | CC[C@H](C)[C@H](NC(=O)[C@H](CCCNC(=N)N)NC(=O)[C@H](CCCNC(=N)N)NC(=O)[C@H](CC(C)C)NC(=O)[C@H](Cc1ccccc1)NC(=O)CNC(=O)CN)C(=O)N[C@@H](CCCNC(=N)N)C(=O)N1CCC[C@H]1C(=O)N[C@@H](CCCCN)C(=O)N[C@@H](CC(C)C)C(=O)N[C@@H](CCCCN)C(=O)N[C@@H](Cc1c[nH]c2ccccc12)C(=O)N[C@@H](CC(=O)O)C(=O)N[C@@H](CC(N)=O)C(=O)N[C@@H](CCC(N)=O)C(=O)O [Dynorphin 2-17] | -4.06 | -1.12 |  | 0.214 | -5.55 |  | -1.19 | -3.44 |  | -9.77 | -26.7 | -21 | -15.3 |  | 1.32 | -2.11 | -0.438 | -1.06 | -6.57 | 0.623 | 
5 | CC[C@H](C)[C@H](NC(=O)[C@H](CCCNC(=N)N)NC(=O)[C@H](CCCNC(=N)N)NC(=O)[C@H](CC(C)C)NC(=O)[C@H](Cc1ccccc1)NC(=O)CNC(=O)CNC(=O)[C@@H](N)Cc1ccc(O)cc1)C(=O)N[C@@H](CCCNC(=N)N)C(=O)N1CCC[C@H]1C(=O)N[C@@H](CCCCN)C(=O)N[C@@H](CC(C)C)C(=O)N[C@@H](CCCCN)C(=O)N[C@@H](Cc1c[nH]c2ccccc12)C(=O)N[C@@H](CC(=O)O)C(=O)N[C@@H](CC(N)=O)C(=O)N[C@@H](CCC(N)=O)C(=O)O [Dynorphin A] | -3.55 | 0.0408 | 5 | 2.9 | -7.47 | 4.56 | -2.77 | 1.06 | -1.99 | -6.67 | -56.8 | -16.7 | 4.28 | 6.56 | 2.19 | -1.33 | -2.27 | -1.32 | -0.0612 | -35.8 | activation (CXCR4; [12]): 36.5%; activation (CCR5; [18]): 2.35%; activation (CCR6; [21]): -4.07%; activation (CCR8; replicate 3): -0.797%
